In ChEMBL document CHEMBL1149799, “Bioactive peroxides as potential therapeutic agents” (Eur J Med Chem, 2008):
Converted amounts (≈) assume the structure as drawn.

Columns and labels:
[1] = system: HT-29; test: Cytotoxicity against human HT29 cells; assay type: functional, cell-based; conditions: for EC50 / IC50: Homo sapiens, HT-29; for EC50: read-out: ED50 (the source's name)
[2] = system: A549; test: Cytotoxicity against human A549 cells; assay type: functional, cell-based; conditions: for EC50 / IC50: Homo sapiens, A549; for EC50: read-out: ED50 (the source's name)
[3] = system: KB; test: Cytotoxicity against human KB cells; assay type: functional, cell-based; conditions: for EC50: read-out: ED50 (the source's name)
[4] = system: P388; test: Cytotoxicity against mouse P388 cells; assay type: functional, cell-based; conditions: for EC50 / IC50: Mus musculus, P388; for EC50: read-out: ED50 (the source's name)
[5] = Cytotoxicity against mouse Ehrlich Ascites carcinoma by trypan blue exclusion assay; assay type: functional
[6] = Cytotoxicity against human MEL28 cells; conditions: SK-MEL-28
[7] = system: DU-145; test: Cytotoxicity against human DU145 cells; assay type: functional, cell-based; conditions: Homo sapiens, DU-145
[8] = system: L1210; test: Cytotoxicity against mouse L1210 cells; assay type: functional, cell-based; conditions: for IC50: Mus musculus, L1210
[9] = system: LoVo; test: Cytotoxicity against human LoVo cells; assay type: functional

C=CC(CC[C@@H](C)[C@H]1CC[C@H]2[C@@H]3C[C@@H](O)C4=CC(=O)CC[C@]4(C)[C@H]3CC[C@]12C)(OO)C(C)C (stereo partly drawn)
EC50 [1]: 0.43 µg/mL (≈ 0.937 µM)
EC50 [2]: 0.64 µg/mL (≈ 1.4 µM)
EC50 ([3]; Homo sapiens, KB): 1.8 µg/mL (≈ 3.92 µM)
EC50 [4]: 0.4 µg/mL (≈ 0.872 µM)

C=CC(CC[C@@H](C)[C@H]1CC[C@H]2[C@@H]3CC(=O)C4=CC(=O)CC[C@]4(C)[C@H]3CC[C@]12C)(OO)C(C)C (stereo partly drawn)
EC50 [1]: 1.4 µg/mL (≈ 3.07 µM)
EC50 [2]: 2.5 µg/mL (≈ 5.47 µM)
EC50 ([3]; Homo sapiens, KB): 4 µg/mL (≈ 8.76 µM)
EC50 [4]: 0.8 µg/mL (≈ 1.75 µM)

C=C1CCCC(C)(C)C1(O)CC[C@@]1(C)CC[C@@H]([C@H](C)C(=O)OC)OO1 (stereo partly drawn) [AIKUPIKOXIDE B]
IC50 [1]: > 1 µg/mL
IC50 [2]: > 1 µg/mL
IC50 [4]: > 1 µg/mL

CO[C@H]1O[C@@H]2O[C@@]3(C)CC[C@H]4[C@H](C)CC[C@@H]([C@H]1C)[C@@]24OO3
IC80 [5]: > 125 µM

C=CCCC/C=C/C=C\CCCCCCCC[C@H]1CC[C@H]([C@@H]2CC[C@@H](CC(=O)OC)OO2)O1
IC50 [6]: 0.1 µg/mL (≈ 0.216 µM)
IC50 [7]: 0.1 µg/mL (≈ 0.216 µM)
IC50 [1]: 0.05 µg/mL (≈ 0.108 µM)
IC50 [2]: 0.01 µg/mL (≈ 0.0216 µM)
IC50 [4]: 0.01 µg/mL (≈ 0.0216 µM)

C[C@H](C/C=C/C(C)(C)OO)[C@H]1CC[C@H]2[C@@H]3CC=C4C[C@@H](O)CC[C@]4(C)[C@H]3CC[C@]12C
EC50 [1]: 1.27 µg/mL (≈ 3.05 µM)
EC50 [2]: 1.68 µg/mL (≈ 4.03 µM)
EC50 ([3]; Homo sapiens, KB): 1.41 µg/mL (≈ 3.38 µM)
EC50 [4]: 0.22 µg/mL (≈ 0.528 µM)

COC(=O)C[C@]1(C)C[C@@](C)(CC(C)CC/C=C/CC/C=C/c2ccccc2)OO1 (stereo partly drawn)
IC50 [8]: 0.0043 µg/mL (≈ 0.0107 µM)
MIC [9]: 0.1 µg/mL (≈ 0.25 µM)
MIC ([3]; Homo sapiens): 1 µg/mL (≈ 2.5 µM)

C=C(C)C(CC[C@@H](C)[C@H]1CC[C@H]2[C@@H]3CC(=O)C4=CC(=O)CC[C@]4(C)[C@H]3CC[C@]12C)OO (stereo partly drawn)
EC50 [1]: 1.48 µg/mL (≈ 3.45 µM)
EC50 [2]: 0.88 µg/mL (≈ 2.05 µM)
EC50 ([3]; Homo sapiens, KB): 1.15 µg/mL (≈ 2.68 µM)
EC50 [4]: 0.53 µg/mL (≈ 1.24 µM)

CC(CC/C=C/CC/C=C/c1ccccc1)C[C@]1(C)C[C@@](C)(CC(=O)O)OO1 (stereo partly drawn) [PLAKINIC ACID D]
IC50 [8]: 0.026 µg/mL (≈ 0.0673 µM)
MIC [9]: 0.001 µg/mL (≈ 0.00259 µM)
MIC ([3]; Homo sapiens): 0.001 µg/mL (≈ 0.00259 µM)

C=CCC/C=C\C=C/CCCCCCCC[C@@H]1CC[C@@H]([C@@H]2CC[C@@H](CC(=O)[O-])OO2)O1.[Na+]
IC50 [6]: 0.1 µg/mL
IC50 [7]: 0.1 µg/mL
IC50 [1]: 0.1 µg/mL
IC50 [2]: 0.1 µg/mL
IC50 [4]: 0.01 µg/mL

CC(CC/C=C/CC/C=C/c1ccccc1)C[C@@]1(C)C[C@@](C)(CC(=O)O)OO1 (stereo partly drawn) [EPIPLAKINIC ACID D]
IC50 [8]: 0.017 µg/mL (≈ 0.044 µM)
MIC [9]: 0.1 µg/mL (≈ 0.259 µM)
MIC ([3]; Homo sapiens): 0.1 µg/mL (≈ 0.259 µM)

C=C(CCCC(C)(C)O)C(=O)CC[C@@]1(C)CC[C@@H]([C@H](C)C(=O)OC)OO1 [AIKUPIKOXIDE D]
IC50 [1]: > 1 µg/mL
IC50 [2]: > 1 µg/mL
IC50 [4]: > 1 µg/mL

C[C@H](C/C=C/C(C)(C)OO)[C@H]1CC[C@H]2[C@@H]3CC(=O)C4=CC(=O)CC[C@]4(C)[C@H]3CC[C@]12C
EC50 [1]: 1.48 µg/mL (≈ 3.45 µM)
EC50 [2]: 0.88 µg/mL (≈ 2.05 µM)
EC50 ([3]; Homo sapiens, KB): 1.15 µg/mL (≈ 2.68 µM)
EC50 [4]: 0.53 µg/mL (≈ 1.24 µM)

CC(C)[C@@H](C)C1CC1[C@@H](C)[C@H]1CC[C@@H]2[C@]1(C)CC[C@H]1[C@]23C=C[C@]2(C[C@@H](O)CC[C@]12C)OO3 (stereo partly drawn)
Activity [1]: 1.4 µg/mL
Activity [2]: 2.7 µg/mL
Activity [3]: 2.1 µg/mL
Activity [4]: 0.4 µg/mL

CC(C)(O)/C=C/C[C@@](C)(O)[C@H]1CC[C@@](C)([C@H]2CC[C@H]([C@]3(C)CC[C@H]([C@](C)(O)C/C=C/C(C)(C)OO)O3)O2)O1
IC50 ([3]; Homo sapiens, KB): 5.3 µg/mL (≈ 9.8 µM)

C/C1=C\CC[C@]2(C)O[C@H]([C@@H]3OC(=O)[C@]4(OO)CCO[C@@H]2C[C@H]34)[C@H](C)CCC1 [PLANAXOOL]
IC100 [8]: 2.4 µg/mL

C[C@H](C/C=C/C(C)(C)OO)[C@H]1CC[C@H]2[C@@H]3C[C@@H](O)C4=CC(=O)CC[C@]4(C)[C@H]3CC[C@]12C
EC50 [1]: 0.63 µg/mL (≈ 1.46 µM)
EC50 [2]: 1 µg/mL (≈ 2.32 µM)
EC50 ([3]; Homo sapiens, KB): 0.4 µg/mL (≈ 0.929 µM)
EC50 [4]: 0.28 µg/mL (≈ 0.65 µM)

C=C1C(=O)O[C@H]2[C@H]1[C@H](OC(C)=O)CC(=C)[C@H](OO)CC[C@@]1(C)O[C@H]21 [PEROXYFEROLIDE]
EC50 ([3]; Homo sapiens, KB): 0.29 µg/mL (≈ 0.857 µM)

C=CCC/C=C\C=C/CCCCCCCC[C@H]1CC[C@H]([C@@H]2CC[C@@H](CC(=O)OC)OO2)O1
IC50 [6]: 0.5 µg/mL (≈ 1.11 µM)
IC50 [7]: 0.1 µg/mL (≈ 0.223 µM)
IC50 [1]: 0.05 µg/mL (≈ 0.111 µM)
IC50 [2]: 0.1 µg/mL (≈ 0.223 µM)
IC50 [4]: 0.5 µg/mL (≈ 1.11 µM)

COc1cccc2c1C(=O)c1c(O)c3c(c(O)c1C2=O)C[C@@](O)(C(=O)CO)C[C@@H]3O[C@H]1C[C@H](N)[C@H](O)[C@H](C)O1 [DOXORUBICIN]
IC50 [2]: 0.002 µg/mL (≈ 0.00368 µM)

C[C@@H]1CC[C@@H]2[C@]34OO[C@@](C)(CC[C@@H]13)O[C@H]4OC(=O)[C@@]2(C)O
IC50 [5]: > 125 µM
IC80 [5]: > 125 µM

C=CCC/C=C\C=C/CCCCCCCC[C@H]1CC[C@H]([C@@H]2CC[C@@H](CC(=O)[O-])OO2)O1.[Na+] [stolonoxide C]
IC50 [6]: 0.5 µg/mL
IC50 [7]: 0.1 µg/mL
IC50 [1]: 0.1 µg/mL
IC50 [2]: 0.1 µg/mL
IC50 [4]: 0.5 µg/mL

C=CCC/C=C\C=C/CCCCCCCC[C@H]1CC[C@@H]([C@@H]2CC[C@@H](CC(=O)O)OO2)O1 [STOLONOXIDE A]
IC50 [6]: 0.1 µg/mL (≈ 0.23 µM)
IC50 [7]: 0.1 µg/mL (≈ 0.23 µM)
IC50 [1]: 0.1 µg/mL (≈ 0.23 µM)
IC50 [2]: 0.1 µg/mL (≈ 0.23 µM)
IC50 [4]: 0.01 µg/mL (≈ 0.023 µM)

COC(=O)C[C@]1(C)C[C@@](C)(CC(C)CCCC/C=C/CC/C=C\c2ccccc2)OO1 (stereo partly drawn)
IC50 [8]: 0.013 µg/mL (≈ 0.0303 µM)
MIC [9]: 1 µg/mL (≈ 2.33 µM)
MIC ([3]; Homo sapiens): 1 µg/mL (≈ 2.33 µM)
